IC50 data for two compounds are collected here from ChEMBL document CHEMBL6178005, “Novel Nonpeptide as Oxytocin Receptor Agonist” (ACS Med Chem Lett, 2025).

Usually IC50 stands for the concentration that inhibits the measured activity by half.

The assay concerns the target Vasopressin V1a receptor (Homo sapiens, UniProt P37288). The assay can be described thus: Antagonist activity at vasopressin V1A receptor (unknown origin) assessed as calcium level. The class given is functional.

Molecules are shown by their SMILES.

Vasopressin V1a receptor, sequence (P37288 whole entry): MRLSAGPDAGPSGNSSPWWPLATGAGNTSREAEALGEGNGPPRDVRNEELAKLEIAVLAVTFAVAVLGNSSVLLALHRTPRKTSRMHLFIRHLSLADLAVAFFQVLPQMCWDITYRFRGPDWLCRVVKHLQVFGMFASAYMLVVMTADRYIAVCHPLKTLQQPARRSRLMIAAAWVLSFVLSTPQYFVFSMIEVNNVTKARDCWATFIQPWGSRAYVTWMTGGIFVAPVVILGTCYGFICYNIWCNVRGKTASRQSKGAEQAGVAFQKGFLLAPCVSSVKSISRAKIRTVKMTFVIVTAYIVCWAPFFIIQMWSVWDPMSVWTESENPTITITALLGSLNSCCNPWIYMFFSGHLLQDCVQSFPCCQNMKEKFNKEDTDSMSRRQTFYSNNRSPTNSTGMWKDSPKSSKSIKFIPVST

On to `Cc1cc(C(=O)N2Cc3cnn(C)c3Nc3ccccc32)ccc1CNC(=O)N1C[C@H](OCCO)C[C@H]1C(=S)N(C)C`, for which the IC50 amounted to 585 nM.

For the compound `Cc1cc(C(=O)N2Cc3cnn(C)c3Nc3ccccc32)ccc1CNC(=O)N1C[C@H](OCc2cc(O)cc(O)c2)C[C@H]1C(=S)N(C)C`, the IC50 turned out to be 2430 nM.
